Test results as given in article PMC4068829 (Journal of medicinal chemistry, 2013).
Where two headings read alike, the source gives them in different places. Values belong to the molecule of their own block, whether it stands above or below them.

Key:
MATE1 [1] = target: T1, MATE1 (Homo sapiens, UniProt Q96FL8); test: in vitro; settings: HEK cells stably overexpressing MATE1, pH 7.4
T1 sequence (Q96FL8 1-570): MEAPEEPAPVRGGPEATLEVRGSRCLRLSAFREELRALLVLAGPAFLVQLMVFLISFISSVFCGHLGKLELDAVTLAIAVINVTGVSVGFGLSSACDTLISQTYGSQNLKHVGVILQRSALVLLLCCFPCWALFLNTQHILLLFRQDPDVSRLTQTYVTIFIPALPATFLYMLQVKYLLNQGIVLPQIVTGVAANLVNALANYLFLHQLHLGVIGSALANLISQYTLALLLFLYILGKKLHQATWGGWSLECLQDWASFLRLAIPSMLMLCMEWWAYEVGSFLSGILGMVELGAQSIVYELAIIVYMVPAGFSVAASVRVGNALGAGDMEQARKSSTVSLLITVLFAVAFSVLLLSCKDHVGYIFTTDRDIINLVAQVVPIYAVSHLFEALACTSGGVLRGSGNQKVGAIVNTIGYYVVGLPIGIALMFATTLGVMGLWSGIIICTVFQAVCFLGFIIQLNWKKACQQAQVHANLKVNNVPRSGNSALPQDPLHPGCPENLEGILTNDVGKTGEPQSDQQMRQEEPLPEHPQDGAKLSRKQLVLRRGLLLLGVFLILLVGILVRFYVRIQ

human MATE2-K = human MATE2-K (Homo sapiens, UniProt Q86VL8); type: cell-based; settings: for did not inhibit MATE2-K up to: highest concentration without inhibition, data not shown
Sequence of human MATE2-K (Q86VL8 1-566 isoform Q86VL8-3): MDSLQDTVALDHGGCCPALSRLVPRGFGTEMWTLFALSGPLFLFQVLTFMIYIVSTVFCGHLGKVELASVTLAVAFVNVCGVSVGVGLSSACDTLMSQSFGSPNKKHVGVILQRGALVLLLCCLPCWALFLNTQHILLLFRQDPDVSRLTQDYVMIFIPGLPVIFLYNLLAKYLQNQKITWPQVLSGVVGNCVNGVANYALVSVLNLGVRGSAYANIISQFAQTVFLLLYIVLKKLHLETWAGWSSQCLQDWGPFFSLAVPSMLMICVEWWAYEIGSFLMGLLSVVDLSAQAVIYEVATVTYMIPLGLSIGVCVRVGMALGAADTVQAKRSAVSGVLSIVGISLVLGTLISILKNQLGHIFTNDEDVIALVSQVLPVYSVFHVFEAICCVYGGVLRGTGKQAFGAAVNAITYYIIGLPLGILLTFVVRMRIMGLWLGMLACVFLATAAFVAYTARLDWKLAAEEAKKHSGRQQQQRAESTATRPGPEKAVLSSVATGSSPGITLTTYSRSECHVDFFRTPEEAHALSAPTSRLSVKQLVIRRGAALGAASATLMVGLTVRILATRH

MATE1 [2] = target: T1, MATE1; test: High throughput screen
MATE1 [3] = target: T1, MATE1; test: 14C-metformin uptake in HEK293 cells stably expressing MATE1
MATE1 [4] = target: T1, MATE1
MATE1 [5] = target: T1, MATE1; type: cell-based
[6] = cited from earlier work
human OCT2 = target: T2, human OCT2 (Homo sapiens, UniProt O15244); type: cell-based
T2 sequence (O15244 1-555): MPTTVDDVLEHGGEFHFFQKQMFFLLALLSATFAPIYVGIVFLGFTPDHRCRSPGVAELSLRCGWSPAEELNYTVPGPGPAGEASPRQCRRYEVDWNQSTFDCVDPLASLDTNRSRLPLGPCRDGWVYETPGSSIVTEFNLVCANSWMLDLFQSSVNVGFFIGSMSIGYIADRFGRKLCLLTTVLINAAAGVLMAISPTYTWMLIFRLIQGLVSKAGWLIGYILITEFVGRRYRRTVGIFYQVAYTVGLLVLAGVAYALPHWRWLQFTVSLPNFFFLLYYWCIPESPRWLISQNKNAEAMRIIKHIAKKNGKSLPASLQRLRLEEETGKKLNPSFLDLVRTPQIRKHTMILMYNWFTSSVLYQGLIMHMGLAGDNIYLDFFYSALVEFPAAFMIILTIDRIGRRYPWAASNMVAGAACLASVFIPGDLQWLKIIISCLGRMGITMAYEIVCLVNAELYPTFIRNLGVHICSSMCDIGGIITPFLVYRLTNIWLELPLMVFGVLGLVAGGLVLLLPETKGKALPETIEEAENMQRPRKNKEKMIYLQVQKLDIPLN

[7] = ref 53 (Micromedex); cited from earlier work
[8] = clinical plasma concentration, ref 54-58 (a-e)

SMILES: CN(C)c1ccc(/C=C/c2cc[n+](C)cc2)cc1 [ASP^+, 4-(4-(Dimethylamino)styryl)-N-methylpyridinium iodide]
Km at […] (MATE1 [1]): 34 µM

did not inhibit MATE2-K up to (human MATE2-K): > 500 µM
SMILES: COc1ccccc1OCCNCC(O)COc1cccc2[nH]c3ccccc3c12 (stereo not drawn) [Carvedilol]

IC50 (MATE1 [2]): 3.1 µM
SMILES: [H]/N=C(\N/C(=N/[H])NCCCCCCNC(=N)NC(=N)Nc1ccc(Cl)cc1)Nc1ccc(Cl)cc1 [Chlorhexidine]

SMILES: CN1C[C@H](C(=O)N[C@]2(C)O[C@@]3(O)[C@@H]4CCCN4C(=O)[C@H](Cc4ccccc4)N3C2=O)C[C@@H]2c3cccc4[nH]cc(c34)C[C@H]21 [Dihydroergotamine]
IC50 (MATE1 [2]): 8 µM

SMILES: NC1=NCC2c3ccccc3Cc3ccccc3N12 (stereo not drawn) [Epinastine]
IC50 (MATE1 [2]): 0.6 µM

IC50 (MATE1 [2]): 13.5 µM
SMILES: C#C[C@]1(O)CC[C@H]2[C@@H]3CCc4cc(O)ccc4[C@H]3CC[C@@]21C [Ethinyl estradiol]

IC50 (MATE1 [3]): 0.09 µM
Cmax,unbound/ IC50 of MATE1, Metformin (MATE1 [3]; ratio, IC50 with 14C-metformin in HEK293-MATE1, threshold ≥ 0.1): 4.34
IC50 (MATE1 [4]): 0.16 µM
Cmax,unbound/ IC50 of MATE1, Metformin Polarized Cells (MATE1 [4]; ratio, IC50 with 14C-metformin in polarized MDCK-hMATE1, threshold ≥ 0.1): 2.44
Cmax,unbound/ IC50 of MATE1, ASP^+ (MATE1 [5]; ratio, IC50 with ASP+ in HEK293-MATE1, clinical relevance threshold ≥ 0.1): 0.51
SMILES: NC(N)=Nc1nc(CSCCC(N)=NS(N)(=O)=O)cs1 [Famotidine]
Cmax ([6]; in vivo): 460 nM

IC50 (MATE1 [2]; read-out: prIC50, predicted IC50 estimated from screening inhibition at 20 μM): 0.8 µM
SMILES: CCOC(=O)c1ccc(OC(=O)CCCCCNC(=N)N)cc1 [Gabaxate]

IC50 (MATE1 [2]): 9.9 µM
SMILES: CN1C2CCCC1CC(NC(=O)c1nn(C)c3ccccc13)C2 (stereo not drawn) [Granisetron]

SMILES: CC(C)(C)NC(=O)[C@@H]1CN(Cc2cccnc2)CCN1C[C@@H](O)C[C@@H](Cc1ccccc1)C(=O)N[C@H]1c2ccccc2C[C@H]1O [Indinavir]
Cmax [6, 8]: 9800 nM

SMILES: CCc1c2c(nc3ccc(OC(=O)N4CCC(N5CCCCC5)CC4)cc13)-c1cc3c(c(=O)n1C2)COC(=O)[C@]3(O)CC [Irinotecan]
Cmax ([6]; in vivo): 4600 nM

IC50 (MATE1 [5]): 11.1 µM
IC50 (human MATE2-K): 125 µM
IC50 (MATE1 [2]): 16 µM
inhibition at 20 µM (MATE1 [2]; human, HEK cells stably overexpressing MATE1, pH 7.4, probe ASP+ (5 µM)): 56 ± 1%
IC50 (human OCT2): 182 µM
SMILES: CO[C@@H]1[C@@H](O[C@@H]2O[C@H](C)[C@@H](O[C@H]3C[C@@](C)(O)[C@@H](OC(=O)CC(C)C)[C@H](C)O3)[C@H](N(C)C)[C@H]2O)[C@@H](CC=O)C[C@@H](C)[C@@H](O)/C=C/C=C/C[C@@H](C)OC(=O)C[C@H]1O [Leucomycin]

SMILES: O=C1c2c(O)ccc(O)c2C(=O)c2c(NCCNCCO)ccc(NCCNCCO)c21 [Mitoxantrone]
Cmax ([6]; in vivo): 630 nM

did not inhibit MATE2-K up to (human MATE2-K): > 500 µM
SMILES: COc1ccc2c(c1OC)C(=O)O[C@@H]2[C@H]1c2c(cc3c(c2OC)OCO3)CCN1C [Noscapine]

SMILES: Cc1nccn1CC1CCc2c(c3ccccc3n2C)C1=O (stereo not drawn) [Ondansetron]
Protein Binding [% bound] [7]: 73 % bound
Cmax [6, 8]: 440 nM

SMILES: COc1ccnc(C[S+]([O-])c2nc3ccc(OC(F)F)cc3[nH]2)c1OC (stereo not drawn) [Pantoprazole]
Protein Binding [% bound] [7]: 98 % bound

SMILES: N=C(N)c1ccc(OCCCCCOc2ccc(C(=N)N)cc2)cc1 [Pentamidine]
Cmax ([6]; in vivo): 730 nM

IC50 (MATE1 [2]): 19.7 µM
SMILES: CC[C@@]1(O)C(=O)OCc2c1cc1n(c2=O)Cc2cc3c(CN(C)C)c(O)ccc3nc2-1 [Topotecan]

SMILES: COc1cc2c3cc1Oc1cc(ccc1O)C[C@@H]1c4c(cc(OC)c(O)c4Oc4ccc(cc4)C[C@@H]3N(C)CC2)CC[N+]1(C)C [Tubocurarine]
Cmax,unbound /IC50 (MATE1, text) (MATE1 [5]): 0.07
IC50 (MATE1 [2]): 1.1 µM
